Assay results taken from a melting point compilation (Tetko et al.; mined from patent text by program, amines drawn as free bases though some values may be those of a salt).

| SMILES | melting point |
| --- | --- |
| CC[C@@]1(CC(=O)NCc2ccccc2)CCCN2CCc3c([nH]c4ccccc34)[C@@H]21 | 179 to 180 °C |
| CCC1c2c(ncn2C)CCN1C(=S)NC(C)C (stereo unspecified) | 196 °C |
| Nc1cc(C(=O)O)cc(OCc2ccsc2)c1-c1ccccc1 | 139 to 140 °C |
| Cc1c(Br)c(=O)c(C(=O)O)c(-c2ccccc2)n1C | 252 to 253 °C |
| CC(C)n1nc(-c2ccc(N)nc2-c2ccccc2)ccc1=O | 167 to 171 °C |
| Cc1c(NC(=O)c2ccnc(NCc3ccc(=O)[nH]c3)c2)cccc1C(F)(F)F | 196 to 201 °C |
| CC(C)c1cc(Oc2c(I)cc(CP(=O)(O)O)cc2I)ccc1O | > 220 °C |
| COc1cccc(Cc2ccccc2)c1C(=O)O | 159 to 161 °C |
| CS(=O)(=O)c1ccc(Oc2cc(OC3CCOCC3)c3[nH]c(C4=NCC(CC(=O)NCCO)S4)cc3c2)cn1 (stereo unspecified) | 157 to 158 °C |
| Cc1ccnc(Nc2nc(-c3ccc(-c4ccccn4)s3)cs2)c1 | 185 to 187 °C |
| C[C@H]1C=CC2=C[C@@H](O)C[C@H](O)[C@@H]2[C@H]1CC[C@@H]1C[C@@H](O)CC(=O)O1 | 161 to 163 °C |
| CSC(=NCCSCc1cc2ccc(CN(C)C)cc2o1)NC#N | 98 to 100 °C |
| CC(C)Oc1ccc(-c2[nH]c(-c3ccc([N+](=O)[O-])cc3)nc2C(=O)Nc2nccs2)cc1 | 267 to 270 °C |
| O=C(NNc1ccc(NC(=S)NCc2ccccc2)cc1)c1ccc(F)cc1 | 186 to 188 °C |
| CCCCCCS(=O)(=O)c1ccccc1C1NC(=O)NC1=O (stereo unspecified) | 188 to 189 °C |
| Cc1nc(N2CCCC(CO)C2)c2nc(-c3ccccc3)cc-2[nH]1 (stereo unspecified) | 255 to 256 °C |
| CCCCCCCCCCC[C@@H](C[C@@H]1OC(=O)[C@H]1CCCCCC)OC(=O)[C@H](CC(C)C)NC(=O)OCc1ccccc1 | 43 to 46 °C |
| CCC(CC)Oc1nc(C)nc(Nc2c(C)cc(C)cc2C)c1[N+](=O)[O-] | 112 to 113 °C |
| COC(=O)Cc1ccccc1N(Cc1ccc(C)cc1)c1c(Cl)cccc1Cl | 113 to 114 °C |
| C=Cc1c(NCc2ccco2)nc(-c2ccc(Cl)c(OC)c2F)nc1C(=O)OC | 100 to 102 °C |
| COC(=O)C(C)(C)c1ccc(OCCN)cc1 | 108 to 112 °C |

| SMILES | melting point |
| --- | --- |
| COC(=O)c1c(O)c(-c2ccccc2)nn1C | 88 to 90 °C |
| COCOc1ccc(C=O)cc1OC | 39 to 40 °C |
| OC1(c2ccc(-c3ccc(F)cc3)cc2)CN2CCC1CC2 (stereo unspecified) | 172 to 173 °C |
| Cc1nc2ccccc2n2cnc(C(=O)OC(C)C)c12 | 182 to 183 °C |
| CCc1ccc(OCCCCCCN2CCN(c3nccs3)CC2)cc1 | 21 to 23 °C |
| COC(=O)c1nc(-c2ccc(Cl)cc2)c(F)c(N)c1I | 114 to 115 °C |
| Cc1cccc(CC(=O)O)c1OCCCc1cn(-c2ccc(C(F)(F)F)cn2)nc1C(C)(C)C | 86 to 87 °C |
| CC(=O)OCC1OC(n2cc(Cc3ccc(OC(F)(F)F)cc3)c3c(Cl)cccc32)C(OC(C)=O)C(OC(C)=O)C1OC(C)=O (stereo unspecified) | 193 to 194 °C |
| CCCCOC(=O)c1ccc(C(C(N)=O)C(C)c2ccccc2N2CCCCC2)cc1 (stereo unspecified) | 148 °C |
| CCCc1nc2c(N)nc3cc(-c4ccc(NC(C)=O)cc4)ccc3c2s1 | 252 to 255 °C |
| COc1cccc2c1OC(COS(=O)(=O)c1ccc(C)cc1)C2 (stereo unspecified) | 98 to 103 °C |
| CCN(CC)CCN1C(=O)c2cscc2N(C)c2ccccc21 | 92 to 93 °C |
| O=C(O)CCc1ccc2ccccc2c1Br | 116 to 119 °C |
| Cc1ccc(-c2nc3ccccc3o2)c(F)c1 | 115 to 117 °C |
| O=C(O)CCc1cc2cc(Cl)ccc2n1S(=O)(=O)c1ccccn1 | 189 °C |
| Cc1coc(NCCN2CCC(Nc3nc4ccccc4n3Cc3ccc(F)cc3)CC2)n1 | 178 °C |
| CC/C(=C(\c1ccc(/C=C/C(=O)O)cc1)c1ccc(OC(=O)CN(C)C)cc1)c1ccccc1 | 206 to 208 °C |
| O=C1NCCc2ccc(OCCCN3CCCN(c4cccc(Cl)c4Cl)CC3)cc21 | 116 to 117 °C |
| COc1ccc(/C=N/Nc2cc(=O)[nH]c3cc(Cl)ccc23)cc1OC1CCCC1 | 210 to 212 °C |
| CCN(CC)Cc1ccc(CN2C(=O)COc3c(C)cc(C=C4SC(=S)NC4=O)cc32)cc1 | 250 to 252 °C |
| CN(Cc1csc(N)c1C(=O)c1ccc(Cl)cc1)c1ccccc1 | 129 to 131 °C |

| SMILES | melting point |
| --- | --- |
| NCCCNc1ncc2ncnc(Nc3ccc(F)c(Cl)c3)c2n1 | 177 to 179 °C |
| FC(F)(F)c1cccc(N2CCN(Cc3n[nH]c4c(Cl)cccc34)CC2)c1 | 133 to 134 °C |
| CCCCNC(=O)N1N=C(c2ccc(N)cc2)c2cc(Cl)ccc2CC1C (stereo unspecified) | 89 to 91 °C |
| COC(=O)c1cc(OC)ccc1N(CC#N)c1ccccc1 | 107 to 109 °C |
| CC1(C)Oc2ccc(C#N)cc2[C@@H](NC(=O)CCl)[C@@H]1O (relative stereo) | 196 to 197 °C |
| CN(CCn1ncc2ccccc2c1=O)CC(O)c1ccc(NS(C)(=O)=O)cc1 (stereo unspecified) | 134 to 137 °C |
| CCc1cc(C(=O)c2ccccc2Cl)c(-n2c(C)nnc2CNC(=O)Nc2ccccc2)s1 | 141 to 143 °C |
| Cc1cccc(NC(C(N)=O)c2ccccc2C)c1 (stereo unspecified) | 90 to 91.5 °C |
| O=C1OC(Cc2ccc3c(c2)OCO3)CN1c1ccccc1 (stereo unspecified) | 110 to 111 °C |
| CC1(C)COC(CCc2ccc(N)cc2)OC1 | 93.5 to 94.5 °C |
| Fc1ccc2c(c1)C(OCc1c(F)cccc1F)C(Cn1ccnc1)S2 (stereo unspecified) | 167 to 168 °C |
| CCCn1nc2c(N)nc3ccccc3c2c1CCCc1cc(-c2ccccc2)no1 | 176 to 178 °C |
| Nc1ccc(CS(=O)(=O)NC2CCCCC2)cc1 | 141 to 143 °C |
| CCNC(=O)NCC(CO)c1cccc2ccc(OC)cc12 (stereo unspecified) | 120 to 122 °C |
| Nc1ccc(Cl)c(N=C2NCCN2)c1 | 154 to 155 °C |
| CCC(=O)NC1CCc2c(ccc(OC)c2N)C1 (stereo unspecified) | 141 °C |
| CCOC(=O)[C@H](Cc1ccc(O)cc1)NC(=O)C(C)(C)NC(=O)[C@@H](SC(C)=O)C(C)C | 137 to 138 °C |
| O=C(O)C1CCC(OCc2ccccc2)CC1 (stereo unspecified) | 55 to 64 °C |
| CC1(C)CON(Cc2ccc(N)cc2Cl)C1=O | 106 to 108 °C |
| COC(=O)C1(S(=O)(=O)N2CCC(c3ccc(Br)c(C)c3)CC2)CCOCC1 | 162 to 163 °C |

Results, then the compound that gave them:

| melting point | SMILES |
| --- | --- |
| 171 °C | COc1ccc2ccccc2c1OP(=O)(O)O |
| 169 to 170 °C | CS(=O)(=O)c1ccc(-n2nc(C(F)(F)F)cc2-c2ccc(-c3cncs3)cc2)cc1 |
| 157 °C | O=c1nc(-c2cccc(CCc3nnn[nH]3)n2)sc2ccccc12 |
| 177 °C | CC(C)(C)n1nc(-c2ccoc2)c(C(N)=O)c1N |
| 115 to 121 °C | CCCn1cc(Cc2ccc(C(=O)NS(=O)(=O)c3ccccc3C)cc2OC)c2cc(CCNC(=O)N(C)C)ccc21 |
| 175 to 182 °C | c1cc2c(cc1-c1nc(OCC3CC3)nc3cc4c(cc13)OCO4)OCO2 |
| 112 to 113 °C | CCn1nc(OCCCc2ccc(OCCOC)cc2OCc2ccc(C(F)(F)F)cc2)cc1CCC(=O)O |
| 47 to 47.5 °C | CC1CCNC1=C[N+](=O)[O-] (stereo unspecified) |
| 181 °C | CCc1ccc2c(c1)cc(C(=O)O)n2CC(=O)OC |
| 210 °C | CC(C)(C)c1cc(C=Cc2n[nH]c(=S)o2)cc(C(C)(C)C)c1O |
| 254 °C | CC(c1ccc2[nH]c(-c3cccnc3)nc2c1)n1ccnc1 (stereo unspecified) |
| 190 to 191 °C | COc1ccc(-c2ncc3n2CNc2ccccc2-3)cc1 |
| 66.5 to 68 °C | Cc1nc2c(CCCc3ccccc3)cccn2c1CC#N |
| 107 to 108 °C | CCCC(C)c1nn(-c2ccc(C(F)(F)F)cn2)cc1CCCOc1c(CC(=O)O)cccc1OC (stereo unspecified) |
| 273 to 276 °C | O=C1NC(=O)c2c1c(-c1c(Cl)cccc1Cl)cc1c2c2cc(O)ccc2n1CCCBr |
| 109 to 125 °C | O=C(Nc1cc2c(cn1)[nH]c1ccccc12)c1cccs1 |
| 325 to 326 °C | O=C(Nc1cccc2c(=O)cc(C(=O)O)oc12)c1ccc2c(c1)CCC(CCCc1ccccc1)O2 (stereo unspecified) |
| 116 to 117 °C | COc1ccc(CCNCC(O)c2ccc(OCc3ccccc3)cc2OCc2ccccc2)cc1OC (stereo unspecified) |
| 80 to 82 °C | CN(CC(O)c1ccc(Br)cc1)C(=O)OC(C)(C)C (stereo unspecified) |
| 134 to 138 °C | CCC(C)(NC(=O)c1cc(Cl)c(N)c(Cl)c1)C(=O)CCl (stereo unspecified) |

| melting point | SMILES |
| --- | --- |
| 74 to 75 °C | CCOC(=O)CC(=O)Nc1ccc(Cl)c(Cl)c1 |
| 186 °C | Cc1cccc(NC(=O)NCC(=O)N(CC(=O)N2CCSC(C)(C)C2)c2ccccc2)c1 |
| 37 to 39 °C | CN(CC(O)c1ccc(C=O)cc1)C(=O)OC(C)(C)C (stereo unspecified) |
| 140 to 143 °C | CC(C)(C)OC(=O)Nc1ccoc1C(N)=O |
| 170 to 171 °C | Cc1ccc2ccc3c(c2c1)CC(=O)O3 |
| 67 to 69 °C | CCN(CC)c1nc(CO)cs1 |
| 140 to 145 °C | COC(=O)c1ccc(CC(C)N(CC(=O)c2ccc(OCc3ccccc3)c(NC(N)=O)c2)Cc2ccccc2)cc1 (stereo unspecified) |
| 212 to 214 °C | COc1ccc(C(=N)c2ccc(Cl)cc2)c(O)c1 |
| 113 to 115 °C | FC(F)(F)c1ccc(C=Cc2nc(CNc3ccc(CCCCn4ccnn4)cc3)co2)cc1 |
| 141 to 142 °C | CC(=O)n1cc(C#N)c(-c2cccc(Cl)c2F)c1 |
| 83 to 86 °C | COC(=O)C1=C(SC)N(c2ccc(Cl)cc2Cl)CCC1 |
| 194 to 198 °C | CCOc1ccc(NS(=O)(=O)c2cccc3c(N(C)C)cccc23)nn1 |
| 88 to 90 °C | COc1ccc(CC2=NC(C)(C)CO2)cc1[N+](=O)[O-] |
| 120 °C | O=S(=O)(c1ccc(Cl)c(CBr)c1Cl)N1CC[C@H](O)C1 |
| 180 to 182 °C | Cn1c([N+](=O)[O-])cnc1-c1nc(C=O)cs1 |
| 98 to 99 °C | CC(=O)Oc1ccccc1CC1CNC(=O)O1 (stereo unspecified) |
| 146 to 148 °C | Cn1c(CC(=O)O)cc2ccccc21 |
| 204 to 206 °C | Cc1c(S(N)(=O)=O)c(C(F)(F)F)nn1C |
| 128 to 130 °C | Cc1cc(C2(C(F)(F)F)CC(c3ccc(F)cc3)=NO2)ccc1NC(=O)c1cccc(I)c1C(=O)NC(C)C (stereo unspecified) |
